For the assay, the target named is T1, Recombinant human TPH1 (MBP tagged) (Homo sapiens, UniProt P17752).
T1 construct: cloning full length human TPH1 cDNA in to a bacterial pMAL-c5E expression vector; made in house; host or cells: E. coli BL21 (DE3)
T1 sequence (P17752 1-444): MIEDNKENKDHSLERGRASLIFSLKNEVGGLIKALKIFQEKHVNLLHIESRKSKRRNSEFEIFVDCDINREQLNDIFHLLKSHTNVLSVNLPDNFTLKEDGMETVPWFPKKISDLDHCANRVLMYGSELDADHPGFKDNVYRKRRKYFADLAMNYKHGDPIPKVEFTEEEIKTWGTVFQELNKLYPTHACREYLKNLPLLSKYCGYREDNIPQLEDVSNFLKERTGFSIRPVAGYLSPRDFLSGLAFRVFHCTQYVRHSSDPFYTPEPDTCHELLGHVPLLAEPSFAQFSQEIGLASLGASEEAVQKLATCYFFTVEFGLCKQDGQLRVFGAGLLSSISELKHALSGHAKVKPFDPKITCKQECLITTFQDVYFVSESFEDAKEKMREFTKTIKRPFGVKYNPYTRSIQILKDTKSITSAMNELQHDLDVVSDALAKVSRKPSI
Briefly: TPH1 in vitro inhibition assay (kinetic fluorescence). It counts as biochemical. To be noted: read-out: TPH1 Range (TPH1 inhibition IC50). The method in brief:
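Final mix: 15 nM MBP-TPH1, 30 μM Trp, 36 μM 6-methyltetrahydropterin, 25 μM ferrous ammonium sulfate, 50 mM MES pH 7.1, 1% DMSO, room temperature.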

The source of these data is US11759462B2, “Spirocyclic compounds as tryptophan hydroxylase inhibitors” (priority 2013, dated 2023).

Some results are limits rather than exact numbers.

Usually IC50 stands for the concentration that inhibits the measured activity by half.

With `Cc1ccn(-c2ccc(-c3ccccc3)cc2[C@@H](Oc2cc(N3CCC4(CC3)CN[C@H](C(=O)O)C4)nc(N)n2)C(F)(F)F)n1` [Example 19n, (S)-8-(2-amino-6-((R)-2,2,2-trifluoro-1-(4-(3-methyl-1H-pyrazol-1-yl)-[1,1′-biphenyl]-3-yl)ethoxy)pyrimidin-4-yl)-2,8-diazaspiro[4.5]decane-3-carboxylic acid], the IC50 is less than 50 nM.

For `Cc1ccn(-c2ccc(-c3ccc(F)c(F)c3)cc2[C@@H](Oc2cc(N3CCC4(CC3)CN[C@H](C(=O)O)C4)nc(N)n2)C(F)(F)F)n1` [Example 19o, (S)-8-(2-amino-6-((R)-1-(3′,4′-difluoro-4-(3-methyl-1H-pyrazol-1-yl)-[1,1′-biphenyl]-3-yl)-2,2,2-trifluoroethoxy)pyrimidin-4-yl)-2,8-diazaspiro[4.5] decane-3-carboxylic acid], the IC50 was less than 50 nM.

As for `Cc1ccn(-c2ccc(-c3ccc(Cl)c(Cl)c3)cc2[C@@H](Oc2cc(N3CCC4(CC3)CN[C@H](C(=O)O)C4)nc(N)n2)C(F)(F)F)n1` [Example 19p, (S)-8-(2-amino-6-((R)-1-(3′,4′-dichloro-4-(3-methyl-1H-pyrazol-1-yl)-[1,1′-biphenyl]-3-yl)-2,2,2-trifluoroethoxy)pyrimidin-4-yl)-2,8-diazaspiro[4.5] decane-3-carboxylic acid], the IC50 is less than 50 nM.

On to `Cc1ccn(-c2ccc(-c3ccc(Cl)cc3)cc2[C@@H](Oc2cc(N3CCC4(CC3)CN[C@H](C(=O)O)C4)nc(N)n2)C(F)(F)F)n1` [Example 19q, (S)-8-(2-amino-6-((R)-1-(4′-chloro-4-(3-methyl-1H-pyrazol-1-yl)-[1,1′-biphenyl]-3-yl)-2,2,2-trifluoroethoxy)pyrimidin-4-yl)-2,8-diazaspiro[4.5] decane-3-carboxylic acid], for which the IC50 was less than 50 nM.

With `Cc1ccn(-c2ccc(-c3ccc(CO)cc3)cc2[C@@H](Oc2cc(N3CCC4(CC3)CN[C@H](C(=O)O)C4)nc(N)n2)C(F)(F)F)n1` [Example 19r, (S)-8-(2-amino-6-((R)-2,2,2-trifluoro-1-(4′-(hydroxymethyl)-4-(3-methyl-1H-pyrazol-1-yl)-[1,1′-biphenyl]-3-yl)ethoxy)pyrimidin-4-yl)-2,8-diazaspiro[4.5]decane-3-carboxylic acid], the IC50 is less than 50 nM.

Take `CCOC(=O)c1ccccc1-c1ccc(-n2ccc(C)n2)c([C@@H](Oc2cc(N3CCC4(CC3)CN[C@H](C(=O)O)C4)nc(N)n2)C(F)(F)F)c1` [Example 20, (S)-8-(2-amino-6-((R)-1-(2′-(ethoxycarbonyl)-4-(3-methyl-1H-pyrazol-1-yl)-[1,1′-biphenyl]-3-yl)-2,2,2-trifluoroethoxy)pyrimidin-4-yl)-2,8-diazaspiro[4.5]decane-3-carboxylic acid]: the IC50 was less than 50 nM.

On to `CCOC(=O)c1ccc(-c2ccc(-n3ccc(C)n3)c([C@@H](Oc3cc(N4CCC5(CC4)CN[C@H](C(=O)O)C5)nc(N)n3)C(F)(F)F)c2)cc1` [Example 21, (S)-8-(2-amino-6-((R)-1-(4′-(ethoxycarbonyl)-4-(3-methyl-1H-pyrazol-1-yl)-[1,1′-biphenyl]-3-yl)-2,2,2-trifluoroethoxy)pyrimidin-4-yl)-2,8-diazaspiro[4.5]decane-3-carboxylic acid], for which the IC50 is less than 50 nM.

With `CCc1ccc(-n2ccc(C)n2)c([C@@H](Oc2cc(N3CCC4(CC3)CN[C@H](C(=O)O)C4)nc(N)n2)C(F)(F)F)c1` [Example 22a, (S)-8-(2-amino-6-((R)-1-(5-ethyl-2-(3-methyl-H-pyrazol-1-yl)phenyl)-2,2,2-trifluoroethoxy)pyrimidin-4-yl)-2,8-diazaspiro[4.5]decane-3-carboxylic acid], the IC50 is less than 50 nM.

Turning to `CCCc1ccc(-n2ccc(C)n2)c([C@@H](Oc2cc(N3CCC4(CC3)CN[C@H](C(=O)O)C4)nc(N)n2)C(F)(F)F)c1` [Example 22b], the IC50 was less than 50 nM.

Consider `CCOC(=O)c1ccc(-n2ccc(C)n2)c([C@@H](Oc2cc(N3CCC4(CC3)CN[C@H](C(=O)O)C4)nc(N)n2)C(F)(F)F)c1` [Example 23, (S)-8-(2-Amino-6-((R)-1-(5-(ethoxycarbonyl)-2-(3-methyl-1H-pyrazol-1-yl)phenyl)-2,2,2-trifluoroethoxy)pyrimidin-4-yl)-2,8-diazaspiro[4.5]decane-3-carboxylic acid], for which the IC50 was less than 50 nM.

On to `Cc1ccn(-c2ccc(C(=O)O)cc2[C@@H](Oc2cc(N3CCC4(CC3)CN[C@H](C(=O)O)C4)nc(N)n2)C(F)(F)F)n1` [Example 24, (S)-8-(2-Amino-6-((R)-1-(5-carboxy-2-(3-methyl-H-pyrazol-1-yl)phenyl)-2,2,2-trifluoroethoxy)pyrimidin-4-yl)-2,8-diazaspiro[4.5]decane-3-carboxylic acid], for which the 50% inhibitory concentration (IC50) fell in the range of 50 to 300 nM.

Turning to `Cc1ccn(-c2cc(CO)ccc2[C@@H](Oc2cc(N3CCC4(CC3)CN[C@H](C(=O)O)C4)nc(N)n2)C(F)(F)F)n1` [Example 25, (S)-8-(2-Amino-6-((R)-2,2,2-trifluoro-1-(4-(hydroxymethyl)-2-(3-methyl-H-pyrazol-1-yl)phenyl)ethoxy)pyrimidin-4-yl)-2,8-diazaspiro[4.5]decane-3-carboxylic acid], the IC50 was less than 50 nM.

Regarding `Cc1ccn(-c2cc(CN(C)C)ccc2[C@@H](Oc2cc(N3CCC4(CC3)CN[C@H](C(=O)O)C4)nc(N)n2)C(F)(F)F)n1` [Example 26, (S)-8-(2-amino-6-((R)-1-(4-((dimethylamino)methyl)-2-(3-methyl-H-pyrazol-1-yl)phenyl)-2,2,2-trifluoroethoxy)pyrimidin-4-yl)-2,8-diazaspiro[4.5]decane-3-carboxylic acid], the IC50 was 3000 to 10000 nM.

On to `Cc1ccn(-c2cc(Br)ccc2[C@@H](Oc2cc(N3CCC4(CC3)CN[C@H](C(=O)O)C4)nc(C)n2)C(F)(F)F)n1` [Example 27, (S)-8-(6-((R)-1-(4-Bromo-2-(3-methyl-1H-pyrazol-1-yl)phenyl)-2,2,2-trifluoroethoxy)-2-methylpyrimidin-4-yl)-2,8-diazaspiro[4.5]decane-3-carboxylic acid], for which the IC50 fell in the range of 50 to 300 nM.

`COc1cc(-c2ccc([C@@H](Oc3cc(N4CCC5(CC4)CN[C@H](C(=O)O)C5)nc(C)n3)C(F)(F)F)c(-n3ccc(C)n3)c2)ccn1` [Example 29a, (S)-8-(2-methyl-6-((R)-2,2,2-trifluoro-1-(4-(2-methoxypyridin-4-yl)-2-(3-methyl-1H-pyrazol-1-yl)phenyl)ethoxy)pyrimidin-4-yl)-2,8-diazaspiro[4.5]decane-3-carboxylic acid]: the IC50 was less than 50 nM.

`Cc1ccn(-c2cc(-c3ccc(S(C)(=O)=O)cc3)ccc2[C@@H](Oc2cc(N3CCC4(CC3)CN[C@H](C(=O)O)C4)nc(C)n2)C(F)(F)F)n1` [Example 29b, (S)-8-(2-methyl-6-((R)-2,2,2-trifluoro-1-(3-(3-methyl-1H-pyrazol-1-yl)-4′-(methylsulfonyl)-[1,1′-biphenyl]-4-yl)ethoxy)pyrimidin-4-yl)-2,8-diazaspiro[4.5]decane-3-carboxylic acid]: the IC50 was less than 50 nM.

`Cc1ccn(-c2cc(-c3ccc(F)c(F)c3)ccc2[C@@H](Oc2cc(N3CCC4(CC3)CN[C@H](C(=O)O)C4)nc(C)n2)C(F)(F)F)n1` [Example 29c, (S)-8-(6-((R)-1-(3′,4′-difluoro-3-(3-methyl-1H-pyrazol-1-yl)-[1,1′-biphenyl]-4-yl)-2,2,2-trifluoroethoxy)-2-methylpyrimidin-4-yl)-2,8-diazaspiro[4.5]decane-3-carboxylic acid]: the IC50 fell in the range of 50 to 300 nM.

On to `Cc1ccn(-c2cc(-c3ccc(C)c(C)c3)ccc2[C@@H](Oc2cc(N3CCC4(CC3)CN[C@H](C(=O)O)C4)nc(C)n2)C(F)(F)F)n1` [Example 29d, (S)-8-(6-((R)-1-(3′,4′-dimethyl-3-(3-methyl-1H-pyrazol-1-yl)-[1,1′-biphenyl]-4-yl)-2,2,2-trifluoroethoxy)-2-methylpyrimidin-4-yl)-2,8-diazaspiro[4.5]decane-3-carboxylic acid], for which the IC50 is less than 50 nM.

Turning to `CCOC(=O)c1cccc(-c2ccc([C@@H](Oc3cc(N4CCC5(CC4)CN[C@H](C(=O)O)C5)nc(C)n3)C(F)(F)F)c(-n3ccc(C)n3)c2)c1` [Example 29e, (S)-8-(6-((R)-1-(3′-(ethoxycarbonyl)-3-(3-methyl-1H-pyrazol-1-yl)-[1,1′-biphenyl]-4-yl)-2,2,2-trifluoroethoxy)-2-methylpyrimidin-4-yl)-2,8-diazaspiro[4.5]decane-3-carboxylic acid], the IC50 lay in the range of 50 to 300 nM.

On to `COc1ccc(-c2ccc([C@@H](Oc3cc(N4CCC5(CC4)CN[C@H](C(=O)O)C5)nc(C)n3)C(F)(F)F)c(-n3ccc(C)n3)c2)cn1` [Example 29f, (S)-8-(2-methyl-6-((R)-2,2,2-trifluoro-1-(4-(6-methoxypyridin-3-yl)-2-(3-methyl-1H-pyrazol-1-yl)phenyl)ethoxy)pyrimidin-4-yl)-2,8-diazaspiro[4.5]decane-3-carboxylic acid], for which the IC50 was less than 50 nM.

`COc1ncc(-c2ccc([C@@H](Oc3cc(N4CCC5(CC4)CN[C@H](C(=O)O)C5)nc(C)n3)C(F)(F)F)c(-n3ccc(C)n3)c2)cn1` [Example 29g, (S)-8-(2-methyl-6-((R)-2,2,2-trifluoro-1-(4-(2-methoxypyrimidin-5-yl)-2-(3-methyl-1H-pyrazol-1-yl)phenyl)ethoxy)pyrimidin-4-yl)-2,8-diazaspiro[4.5]decane-3-carboxylic acid]: the IC50 was less than 50 nM.
